Measurements taken from patent publication US11491157B2, “Cycloalkyl substituted pyrazolopyrimidines having activity against RSV” (priority 2018, dated 2022).

Tests used:
in vitro = details: human
Protocol: (§1) Black 384-well clear-bottom microtiter plates (Corning, Amsterdam, The Netherlands) were filled via acoustic drop ejection using the echo liquid handler (Labcyte, Sunnyvale, Calif.). 200 nL of compound stock solutions (100% DMSO) were transferred to the assay plates. 9 serial 4-fold dilutions of compound were made, creating per quadrant the same compound concentration. The assay was initiated by adding 10 μL of culture medium to each well (RPMI medium without phenol red, 10% FBS-heat inactivated, 0.04% gentamycin (50 mg/mL). All addition steps are done by using a multidrop dispenser (Thermo Scientific, Erembodegem, Belgium). Next, rgRSV224 virus (MOI=1) diluted in culture medium was added to the plates. rgRSV224 virus is an engineered virus that includes an additional GFP gene (Hallak L K, Spillmann D, Collins P L, Peeples M E. Glycosaminoglycan sulfation requirements for respiratory syncytial virus infection; Journal of virology (2000), 74(22), 10508-13) and was in-licensed from the NIH (Bethesda, Md., USA). Finally, 20 μL of a HeLa cell suspension (3,000 cells/well) were plated. Medium, virus- and mock-infected controls were included in each test. The wells contain 0.05% DMSO per volume. Cells were incubated at 37° C. in a 5% CO2 atmosphere. Three days post-virus exposure, viral replication was quantified by measuring GFP expression in the cells by an in house developed MSM laser microscope (Tibotec, Beerse, Belgium). The EC50 was defined as the 50% inhibitory concentration for GFP expression. In parallel, compounds were incubated for three days in a set of white 384-well microtiter plates (Corning) and the cytotoxicity of compounds in HeLa cells was determined by measuring the ATP content of the cells using the ATPlite kit (Perkin Elmer, Zaventem, Belgium) according to the manufacturer's instructions. The CC50 was defined as the 50% concentration for cytotoxicity.

rgRSV224 virus = experiment: Antiviral activity: rgRSV224 (GFP) replication in HeLa cells; details: human respiratory syncytial virus, 72 h, read-out: RSV HELA EC50
Protocol: as §1

[1] = Cytotoxicity in HeLa cells (ATP content, ATPlite kit); details: human
Protocol: as §1

Compound	CC50 at 3 days (in vitro) [nM]	EC50 (rgRSV224 virus) [nM]	melting point [°C]	CC50 at 3 days [1] [nM]
C[C@@H]1c2ccccc2CCN1C(=O)c1cc(C2CC2)n2nc(-c3ccc([C@H]4C[C@@H]4C(=O)NS(=O)(=O)C4CC4)cc3F)cc2n1 [Compound 27, (1S,2S)—N-(Cyclopropanesulfonyl)-2-(4-{7-cyclopropyl-5-[(1R)-1-methyl-1,2,3,4-tetrahydroisoquinoline-2-carbonyl]pyrazolo[1,5-a]pyrimidin-2-yl}-3-fluorophenyl)-cyclopropane-1-carboxamide]	55800	40	177.21	
C[C@@H]1c2ccccc2CCN1C(=O)c1cc(C2CC2)n2nc(-c3ccc([C@H]4C[C@@H]4NC(=O)NC4CC4)cc3F)cc2n1 [Compound 30, 1-Cyclopropyl-3-[(1S,2R)-2-(4-{7-cyclopropyl-5-[(1R)-1-methyl-1,2,3,4-tetrahydro-isoquinoline-2-carbonyl]pyrazolo[1,5-a]pyrimidin-2-yl}-3-fluorophenyl)cyclopropyl]urea]	40800	49	213.73	
CC(=O)N[C@H]1C[C@@H]1c1ccc(-c2cc3nc(C(=O)N4CCc5ccccc5[C@H]4C)cc(C4CC4)n3n2)c(F)c1 [Compound 34, N-[(1S,2R)-2-(4-{7-Cyclopropyl-5-[(1R)-1-methyl-1,2,3,4-tetrahydroisoquinoline-2-carbonyl]pyrazolo[1,5-a]pyrimidin-2-yl}-3-fluorophenyl)cyclopropyl]acetamide]	> 100000	22	232.53	
C[C@@H]1c2ccccc2CCN1C(=O)c1cc(C2CC2)n2nc(-c3ccc([C@H]4C[C@@H]4NP(C)(C)=O)cc3F)cc2n1 [Compound 37, (1R)-2-(7-Cyclopropyl-2-{4-[(1R,2S)-2-[(dimethylphosphoryl)amino]cyclopropyl]-2-fluorophenyl}pyrazolo[1,5-a]pyrimidine-5-carbonyl)-1-methyl-1,2,3,4-tetrahydroisoquinoline]		63		41600
C[C@@H]1c2ccccc2CCN1C(=O)c1cc(C2CC2)n2nc(-c3ccc([C@H]4C[C@@H]4OC(N)=O)cc3F)cc2n1 [Compound 39, (1S,2R)-2-(4-{7-Cyclopropyl-5-[(1R)-1-methyl-1,2,3,4-tetrahydroisoquinoline-2-carbonyl]pyrazolo[1,5-a]pyrimidin-2-yl}-3-fluorophenyl)cyclopropyl carbamate]	12500	82	297.87	
CNC(=O)O[C@H]1C[C@@H]1c1ccc(-c2cc3nc(C(=O)N4CCc5ccccc5[C@H]4C)cc(C4CC4)n3n2)c(F)c1 [Compound 40, (1S,2R)-2-(4-{7-Cyclopropyl-5-[(1R)-1-methyl-1,2,3,4-tetrahydroisoquinoline-2-carbonyl]pyrazolo[1,5-a]pyrimidin-2-yl}-3-fluorophenyl)cyclopropyl N-methylcarbamate]	> 100000	138	274.46	
C[C@@H]1c2ccccc2CCN1C(=O)c1cc(C2CC2)n2nc(-c3ccc([C@H]4C[C@@H](CO)C4)cc3F)cc2n1 [Compound 42, [cis-3-(4-{7-Cyclopropyl-5-[(1R)-1-methyl-1,2,3,4-tetrahydroisoquinoline-2-carbonyl]-pyrazolo[1,5-a]pyrimidin-2-yl}-3-fluorophenyl)cyclobutyl]methanol]	69200	263	129.63	
C[C@@H]1c2ccccc2CCN1C(=O)c1cc(C2CC2)n2nc(-c3ccc([C@H]4C[C@@H](COC(N)=O)C4)cc3F)cc2n1 [Compound 44, [cis-3-(4-{7-Cyclopropyl-5-[(1R)-1-methyl-1,2,3,4-tetrahydroisoquinoline-2-carbonyl]pyrazolo[1,5-a]pyrimidin-2-yl}-3-fluorophenyl)cyclobutyl]methyl carbamate]	> 100000	332	300.97	
CNC(=O)C[C@H]1C[C@@H](c2ccc(-c3cc4nc(C(=O)N5CCc6ccccc6[C@H]5C)cc(C5CC5)n4n3)c(F)c2)C1 [Compound 48, N-methyl-2-[cis-3-(4-{7-cyclopropyl-5-[(1R)-1-methyl-1,2,3,4-tetrahydroisoquinoline-2-carbonyl]pyrazolo[1,5-a]pyrimidin-2-yl}-3-fluorophenyl)cyclobutyl]acetamide]	23900	151	143.95	
